Test results reported in ChEMBL document CHEMBL1156697, “Investigations concerning the COX/5-LOX inhibiting and hydroxyl radical scavenging potencies of novel 4,5-diaryl isoselenazoles” (Eur J Med Chem, 2008).
Blank lines part the entries; values can stand above or below the compound they belong to.

How the values were obtained:
[1] = Antioxidant activity assessed as hydroxyl radical scavenging activity at 100 uM; type: functional
[2] = molecular target: T1, Prostaglandin G/H synthase 1 (Bos taurus, UniProt O62664); test: Inhibition of bovine COX1
T1 sequence (O62664 whole entry): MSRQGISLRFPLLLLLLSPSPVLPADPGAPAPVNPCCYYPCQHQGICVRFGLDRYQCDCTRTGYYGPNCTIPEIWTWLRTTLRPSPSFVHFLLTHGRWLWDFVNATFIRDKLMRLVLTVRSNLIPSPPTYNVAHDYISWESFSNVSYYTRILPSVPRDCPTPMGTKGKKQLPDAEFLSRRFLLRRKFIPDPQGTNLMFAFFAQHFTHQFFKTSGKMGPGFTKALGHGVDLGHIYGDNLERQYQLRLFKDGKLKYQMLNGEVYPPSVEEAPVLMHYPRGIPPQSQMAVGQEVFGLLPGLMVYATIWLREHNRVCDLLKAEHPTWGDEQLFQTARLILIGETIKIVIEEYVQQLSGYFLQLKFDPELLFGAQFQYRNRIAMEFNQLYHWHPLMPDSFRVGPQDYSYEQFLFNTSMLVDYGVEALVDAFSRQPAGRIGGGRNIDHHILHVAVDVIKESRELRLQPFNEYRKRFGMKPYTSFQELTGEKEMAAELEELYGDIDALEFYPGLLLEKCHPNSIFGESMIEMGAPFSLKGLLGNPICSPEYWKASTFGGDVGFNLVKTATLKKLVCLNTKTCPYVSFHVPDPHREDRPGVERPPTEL

[3] = molecular target: T2, Prostaglandin G/H synthase 2 (Homo sapiens) (UniProt P35354); test: Inhibition of human COX2 at 10 uM
T2 sequence (whole entry): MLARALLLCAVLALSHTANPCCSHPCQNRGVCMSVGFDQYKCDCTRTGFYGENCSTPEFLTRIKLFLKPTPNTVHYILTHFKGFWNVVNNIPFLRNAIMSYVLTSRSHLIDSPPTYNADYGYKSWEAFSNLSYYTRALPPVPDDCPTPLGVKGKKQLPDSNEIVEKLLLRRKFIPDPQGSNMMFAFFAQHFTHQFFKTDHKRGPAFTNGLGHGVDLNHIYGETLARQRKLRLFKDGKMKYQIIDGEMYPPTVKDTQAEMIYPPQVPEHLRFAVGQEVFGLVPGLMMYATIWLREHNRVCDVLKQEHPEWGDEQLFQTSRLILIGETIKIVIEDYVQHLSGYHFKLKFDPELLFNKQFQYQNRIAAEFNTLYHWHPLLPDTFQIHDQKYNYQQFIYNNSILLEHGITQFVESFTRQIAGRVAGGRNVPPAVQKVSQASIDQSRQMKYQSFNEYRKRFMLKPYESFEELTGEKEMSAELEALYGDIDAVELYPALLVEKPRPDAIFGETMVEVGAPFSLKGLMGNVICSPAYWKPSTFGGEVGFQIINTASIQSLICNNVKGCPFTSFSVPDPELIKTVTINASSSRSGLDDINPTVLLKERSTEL

[4] = molecular target: T3, Prostaglandin G/H synthase 1 (Bos taurus) (UniProt O62664); test: Inhibition of bovine COX1 at 10 uM
T3 sequence (whole entry): T1 sequence (O62664 whole entry)

[5] = Inhibition of bovine 5LOX
[6] = molecular target: T4, Prostaglandin G/H synthase 2 (Homo sapiens, UniProt P35354)
T4 sequence (P35354 whole entry): T2 sequence (whole entry)

Compound: Cc1ccc(-c2cc(C(F)(F)F)nn2-c2ccc(S(N)(=O)=O)cc2)cc1
- inhibition [1]: 27%

Compound: O=c1c2ccccc2[se]n1-c1ccccc1 [EBSELEN]
- IC50 [2]: 2100 nM

Compound: COc1ccc(-c2[se]ncc2-c2ccc(Cl)cc2)cc1
- IC50 [2]: 20 nM
- inhibition [3]: 17%

Compound: Cc1ccc(-c2cn[se]c2-c2ccc(Cl)cc2)cc1
- IC50 [2]: 200 nM

Compound: Cc1ccc(-c2[se]ncc2-c2ccc(Cl)cc2)cc1
- IC50 [2]: 50 nM

- inhibition [4]: 31%
- inhibition [3]: 10%
- IC50 [5]: 1000 nM
Compound: CC(Cc1ccc(O)c(O)c1)C(C)Cc1ccc(O)c(O)c1 (stereo unspecified) [NORDIHYDROGUAIARETIC ACID]

Compound: Clc1ccc(-c2cn[se]c2-c2ccc(Cl)cc2)cc1
- IC50 [2]: 200 nM

- IC50 [5]: 180 nM
Compound: CC1(C)Cc2c(-c3ccccc3)c(-c3ccc(Cl)cc3)c(CC(=O)O)n2C1 [LICOFELONE]

Compound: CS(=O)(=O)c1ccc(-c2[se]ncc2-c2ccc(F)cc2)cc1
- inhibition [4]: 38%
- IC50 [6]: 600 nM
- IC50 [5]: 8000 nM
- inhibition [1]: 34%

Compound: COc1ccc(-c2cn[se]c2-c2ccc(OC)cc2)cc1
- IC50 [2]: 6 nM
- IC50 [6]: 8000 nM
- inhibition [1]: 14%

Compound: COc1ccc(-c2[se]ncc2-c2ccc(C)cc2)cc1
- IC50 [2]: 20 nM

Compound: COc1ccc(-c2cn[se]c2-c2ccc(Cl)cc2)cc1
- IC50 [2]: 10 nM
- inhibition [3]: 16%
